Data from article PMC9570490, “Novel Morpholine-Bearing Quinoline Derivatives as Potential Cholinesterase Inhibitors: The Influence of Amine, Carbon Linkers and Phenylamino Groups” (International Journal of Molecular Sciences, 2022).
In brackets after ≈: the same amount, converted by molar mass. Entries after “also recorded” stand apart in the source; their conditions may differ. Read-outs that look alike come from different tables or passages of the source. Marks after values point to notes of the source that are not given here.

What was measured:
[1] = target: T1, BChE (EC 3.1.1.8, from horse serum) (Equus caballus, UniProt P81908); assay: biochemical; conditions: means ± SD, at least three independents
T1 construct: BChE (EC 3.1.1.8, from horse serum); purchased Sigma-Aldrich; host or cells: horse serum
Procedure: (§1) AChE and BChE inhibitory activities of compounds were determined by using a modified Ellman’s method. AChE (EC 3.1.1.7, from electric eel), BChE (EC 3.1.1.8, from horse serum), 5,5′-dithiobis(2nitrobenzoic acid) (DTNB), acetylthiocholine iodide (ATCI) and butyrylthiocholine iodide (BTCI) were purchased from Sigma-Aldrich. The reaction mixture contained 140 μL of 100 mM sodium phosphate buffer (pH 8.0), the enzyme solution (either 0.05 U/mL of AChE, 20 μL; or 0.05 U/mL of BChE, 20 μL), and test compound (20 μL). Assayed solutions of test compounds were pre-incubated with corresponding ChE at 25 °C for 15 min. The reaction was initiated by the addition of 10 μL of 10 mM DTNB and 10 μL of 7.5 mM substrate (ATCI or BTCI). The activity was determined by measuring the increase in absorbance at 412 nm at 37 °C in 10 min intervals using a microplate reader. The percentage of inhibition was calculated from the measured data as follows: (Ac − Ai)/Ac × 100%, where Ai and Ac represent the change in the absorbance in the presence of inhibitor and without inhibitor, respectively.

[2] = target: T2, AChE (EC 3.1.1.7, from electric eel) (Electrophorus electricus, UniProt O42275); assay: biochemical; conditions: for IC50: means ± SD, at least three independents
T2 construct: purchased Sigma-Aldrich
Procedure: as §1

AChE = target: T3, AChE (Electrophorus electricus, UniProt O42275); assay: Enzyme kinetic analysis against AChE (reversibility, Lineweaver-Burk, Ki); type: biochemical; conditions: for type of AChE inhibition: Lineweaver-Burk plots; for Ki: Lineweaver-Burk secondary plots, substrate ATCI, read-out: Ki (inhibition constant) against AChE; for reversibility of AChE inhibition: plots of initial velocity versus enzyme concentration
T3 construct: purchased Sigma-Aldrich
Procedure: The kinetic characteristics of two active compounds, 11a and 11g, against AChE was also studied to elucidate the type of inhibition and the inhibition constant. The analysis was carried out by measuring the enzyme’s activity at different concentrations of substrate (0 μM–10.0 μM). The acquired inhibition data were further depicted with the Lineweaver–Burk method followed by inhibition constant (Ki) calculation using Lineweaver–Burk secondary plots. […] This pattern of inhibition is usually the result of a combination of partially competitive and non-competitive inhibitors.
In order to investigate the reversibility of compounds 11a and 11g to AChE, different concentrations of compounds (0−10 μM) and five different concentrations of AChE (0.025−0.10 U/mL) were measured at 412 nm after a 2 min incubation at 37 °C. Values were measured in triplicate for the velocity and enzyme concentration profiles. Velocity (V) was calculated from the measured data as follows: V = (Ac−Ai)/2, where Ai and Ac represent the change in absorbance in the presence and absence of […], respectively. All data were analyzed by OriginPro 2021.
For each experiment, the reaction was started by adding substrate and the progression curve was recorded at 412 nm after two minutes of incubation at 37°C. […] The slopes of these inverse plots were then plotted against the compound concentrations in the correlation analysis, and Ki was determined as the intercept on the negative x-axis. All rate measurements were performed in triplicate and data analysis was performed using OriginPro 2021.

[3] = Water solubility, shake-flask method; type: physicochemical; conditions: thermodynamic from solid, double distilled water, 37 °C
Procedure: Water solubility is regarded as another vital descriptor for BBB penetration, where high solubility is considered as a prerequisite for a rapid absorption and higher bioavailability of a drug candidate. […] With this experiment, we have obtained their data as 0.62, 3.03, 12.9, and […] for the selected compounds 11a, 11g, 12a, and 12c, respectively.
Solubility was determined by using the shake-flask method.The desired amount of the compound was placed in a test tube, to which an appropriate amount of double distilled water was introduced. The suspension was agitated on a plate shaker at 37 °C for 24 h. After centrifuging, HPLC analyses of supernatant was performed. The solubility of the compound was obtained from its HPLC result.

[4] = Lipophilicity (LogP) determination, shake-flask octanol/water; type: physicochemical; conditions: HPLC, read-out: LogP (experimental)
From the text: For anti-Alzheimer drug candidates, the ability to cross the blood–brain barrier (BBB) and to enter the central nervous system (CNS) is crucial to achieve their pharmacological target binding and activity, and CNS drugs require more strict rules for a successful penetration. […] Besides, for molecules to penetrate the BBB, a topological polar surface area (TPSA) value less than 90 Å ^2 is usually needed and molecules with a TPSA of greater than 120 Å ^2 tend to be poor in permeating cell membranes. Therefore, the molar mass (MW), LogP, and TPSA of all target compounds were simulated by ChemDraw 19.0 (Table 1). […] Because LogP was thought as an important physicochemical parameter to evaluate the ability to cross BBB, the LogP of some compounds was further assessed in experiments.
The lipophilicities of test compounds were determined using the traditional shake-flask method. A solid test compound (2 mg) was placed into a 10 mL pear-shaped flask, and measured volumes of octanol and water were added for logP determination. The resulting biphasic mixture was stirred for 24 h and then left without stirring for 12 h to allow phase separation. The test compound in each phase was sampled and quantitated using HPLC. The areas under the peaks were divided and the log taken.

[5] = ABTS radical-scavenging assay
Procedure: ABTS radical-scavenging activity was measured by using the modified method. The test compound was dissolved in ethanol as 1.0 mg/mL, 0.5 mg/mL, 0.25 mg/mL, 0.125 mg/mL, 0.0625 mg/mL, and 0.03125 mg/mL. Similarly, the ethanol solution of Trolox with the same concentration gradient was prepared as a positive control. ABTS solution at a concentration of 7 mM and potassium persulfate solution at a concentration of 2.45 mM with distilled water were also prepared. The ABTS solution and the potassium persulfate solution were mixed in equal amounts, and then placed in the dark and protected from light for 12 h. The ABTS standard solution was diluted with ethanol until the absorbance value at 734 nm was in the range of 0.7 ± 0.05. Then, 3900 µL of ABTS cation solution was mixed with 100 µL of test compound at different concentrations. The samples were kept in the dark for 10 min at room temperature and absorption was measured at 734 nm on a spectrophotometer. The percentage of ABTS radical-scavenging activity was calculated as follows: (Ac−Ai)/Ac × 100%, where Ai and Ac represented the change in absorbance in the presence and absence of the test sample, respectively.

[6] = target: T2, AChE (EC 3.1.1.7, from electric eel); conditions: cited from earlier work
[7] = target: T1, BChE (EC 3.1.1.8, from horse serum); conditions: cited from earlier work

T2 sequence (O42275 24-633): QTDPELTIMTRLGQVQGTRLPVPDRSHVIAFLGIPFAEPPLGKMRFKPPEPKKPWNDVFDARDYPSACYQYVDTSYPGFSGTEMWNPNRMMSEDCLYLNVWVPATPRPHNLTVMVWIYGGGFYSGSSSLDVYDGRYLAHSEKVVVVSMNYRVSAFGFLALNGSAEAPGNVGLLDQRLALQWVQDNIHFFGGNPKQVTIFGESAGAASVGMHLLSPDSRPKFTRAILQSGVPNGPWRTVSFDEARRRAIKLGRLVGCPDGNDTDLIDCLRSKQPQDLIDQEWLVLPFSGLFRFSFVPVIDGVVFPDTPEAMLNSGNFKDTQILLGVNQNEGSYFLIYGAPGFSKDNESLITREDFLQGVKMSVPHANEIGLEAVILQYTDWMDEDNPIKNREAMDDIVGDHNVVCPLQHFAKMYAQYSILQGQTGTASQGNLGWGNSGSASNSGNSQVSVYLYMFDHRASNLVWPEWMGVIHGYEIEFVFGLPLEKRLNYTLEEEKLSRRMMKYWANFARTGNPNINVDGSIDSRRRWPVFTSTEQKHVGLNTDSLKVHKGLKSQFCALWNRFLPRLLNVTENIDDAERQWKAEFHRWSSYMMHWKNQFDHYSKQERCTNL
T3 sequence (O42275 24-633): as above
T1 sequence (P81908 whole entry): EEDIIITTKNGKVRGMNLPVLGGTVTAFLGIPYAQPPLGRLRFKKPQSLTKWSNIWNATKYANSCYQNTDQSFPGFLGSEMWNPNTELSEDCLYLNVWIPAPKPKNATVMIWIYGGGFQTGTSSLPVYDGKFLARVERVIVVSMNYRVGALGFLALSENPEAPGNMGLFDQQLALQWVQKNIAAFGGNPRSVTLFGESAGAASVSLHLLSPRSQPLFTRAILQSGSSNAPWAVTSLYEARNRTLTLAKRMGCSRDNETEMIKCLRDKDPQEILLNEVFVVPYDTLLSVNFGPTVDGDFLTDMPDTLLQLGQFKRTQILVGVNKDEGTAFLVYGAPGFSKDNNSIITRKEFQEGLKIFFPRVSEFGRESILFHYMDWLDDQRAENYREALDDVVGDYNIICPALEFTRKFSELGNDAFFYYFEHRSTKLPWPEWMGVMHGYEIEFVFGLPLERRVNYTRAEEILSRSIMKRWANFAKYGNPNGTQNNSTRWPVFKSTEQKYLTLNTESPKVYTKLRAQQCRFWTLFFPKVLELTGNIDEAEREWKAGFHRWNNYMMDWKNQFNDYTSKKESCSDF

| Compound | IC50 [1] | SI for AChE = IC50 BChE/IC50 AChE [2] | IC50 [2] | type of AChE inhibition (AChE) | Ki (AChE) | reversibility of AChE inhibition (AChE) | solubility at 24 h [3] | logP at 24 h [4] | ABTS radical-scavenging IC50 [5] | IC50 [5] | SI for AChE = IC50 BChE/IC50 AChE [6] | IC50 [7] | IC50 [6] |
| --- | --- | --- | --- | --- | --- | --- | --- | --- | --- | --- | --- | --- | --- |
| COc1cc2c(Nc3ccccc3)c([N+](=O)[O-])cnc2cc1OCCCN1CCOCC1 [11a, 6-Methoxy-7-(3-Morpholinopropoxy)-3-Nitro-4-Phenylamino-Quinoline] | 80.9 ± 2.31 µM | 16.37 | 4.94 ± 0.15 µM | mixed-type AChE inhibitors; also recorded: mixed type of inhibition | 2.03 µM | reversible inhibitors | 620 µg/mL (≈ 1.41 mM) | 3.82 |  |  |  |  |  |
| COc1cc2c(Nc3ccccc3)c([N+](=O)[O-])cnc2cc1OCCN1CCOCC1 [11g, 6-Methoxy-7-(2-Morpholinoethoxy)-3-Nitro-4-Phenylamino-Quinoline] | 28.4 ± 1.85 µM |  | 1.94 ± 0.13 µM | mixed-type AChE inhibitors; also recorded: mixed type of inhibition | 0.64 µM | reversible inhibitors | 3030 µg/mL (≈ 7.14 mM) | 3.55 | 17.50 ± 2.71 µg/mL | 41.2 ± 6.38 µM |  |  |  |
| COc1cc2c(Nc3ccccc3Cl)c([N+](=O)[O-])cnc2cc1OCCCN(C)Cc1ccccc1 [B] |  |  |  |  |  |  |  |  |  |  | 3.08 ^e |  |  |
| COc1ccc(Nc2c([N+](=O)[O-])cnc3cc(OCCCN4CCC(C)CC4)c(OC)cc23)cc1 [C] |  |  |  |  |  |  |  |  |  |  | 15.43 ^f | 18.5 ± 1.2 µM | 1.2 ± 0.18 µM |
